Laboratory results reported in PubChem BioAssay AID489032 (Sanford-Burnham Center for Chemical Genomics, 2010).
Activity calls are given as the source filed them. How the calls were made is not given here.

test system: UPR adaptive arm reporter cells, luciferase luminescence; experiment: activators of adaptive UPR signalling, dose response, cell-based, luciferase luminescence (AID 489032)

Row | Compound | EC50
1 | O=C(/C=C1\NC2(CCCC2)Cc2ccccc21)C(=O)N/N=C/c1ccc(O)c(O)c1 | 32 µM (inactive)
2 | CCN(CC)S(=O)(=O)c1ccc(N/N=C(\C)c2ccc3c(c2)OCO3)c([N+](=O)[O-])c1 | 22.1 µM (inactive)
3 | COCc1cc(C)nc(OCC(=O)N/N=C/c2ccc(-c3cc([N+](=O)[O-])ccc3Cl)o2)c1C#N | 13.5 µM
4 | Oc1cc(-c2ccc(N3CCCCC3)nc2)cc2cccnc12 | > 80 µM (inactive)
5 | O=C(N/N=C/C(Br)=C\c1ccccc1)c1n[nH]c2c1CCC2 | > 80 µM (inactive)
6 | N#Cc1c(-c2ccc3c(c2)OCO3)ccn2nc(-c3cccc(C(F)(F)F)c3)nc12 | > 80 µM (inactive)
7 | CC(C)c1cccc(-c2ccc3c(c2)S(=O)(=O)c2cccc(C(=O)NCc4ccccc4Cl)c2C3=O)c1 | 38.4 µM (inactive)
8 | CCCn1c(Nc2nc3ccccc3n2C)nc2ccccc21 | > 80 µM (inactive)
9 | COc1ccc(-c2cc(C(F)F)n3ncc(C(=O)N4CCc5ccccc5C4)c3n2)cc1 | 28.6 µM (inactive)
10 | Cc1cccc(N2CCN(C(=S)Nc3ccc4nc(N5CCN(C)CC5)cc(C)c4c3)CC2C)c1 (stereo not given) | > 80 µM (inactive)
11 | CN(C)CCCN(C(=O)c1ccc(S(=O)(=O)N2CCCCCC2)cc1)c1nc2ccc(Br)cc2s1 | > 80 µM (inactive)
12 | CCOC(=O)c1nnc(-c2ccccc2)nc1Sc1ccccc1Cl | > 80 µM (inactive)
13 | O=C(Nc1nc(-c2ccc(F)c(F)c2)cs1)Nc1ccc(F)cc1F | 37.2 µM (inactive)
14 | COc1ccc(-c2nn(-c3ccccc3)cc2/C=N/N2C(=O)CSC2=S)cc1 | > 80 µM (inactive)
15 | Nc1c(C(=O)Nc2ccc(S(=O)(=O)N3CCCC3)cc2)sc2nc3ccc(OC(F)(F)F)cc3cc12 | 12 µM
16 | CCC(=O)Nc1cccc(C(=O)/C=C/c2ccc(F)cc2)c1 | > 80 µM (inactive)
17 | CCCc1nc2ccccc2c(=O)n1/N=C/c1ccc(O)c(O)c1 | > 80 µM (inactive)
18 | CC(C)CC(NC(=O)c1ccc(Cl)cc1)C(=O)OCC(=O)c1ccc2c(c1)NC(=O)CO2 (stereo not given) | > 80 µM (inactive)

Row | Compound | EC50
19 | Cc1ccc2c(n1)sc1c(-c3ccc(Br)cc3)c(C#N)c(N)nc12 | > 80 µM (inactive)
20 | Cc1ccc(-n2nc3c(N4CCC(C(=O)NCCc5cccs5)CC4)nnc(C)c3c2C)cc1 | > 80 µM (inactive)
21 | C=CCN1C(=O)/C(=C2/Sc3ccc(OC)cc3N2C)SC1=Nc1cccc(O)c1 | > 80 µM (inactive)
22 | Cc1c(Cl)cccc1Nc1nc(NCCO)c2ccccc2n1 | 26.6 µM (inactive)
23 | COc1ccc(-c2cc(C(F)F)n3ncc(C(=O)Nc4ccc(C(=O)N5CCOCC5)cc4)c3n2)cc1 | > 80 µM (inactive)
24 | Cn1nc(C(F)(F)F)c(/C=N/OC(=O)c2ccccc2)c1SCc1ccc(Cl)cc1 | 35.5 µM (inactive)
25 | COc1ccc(C(=O)O/N=C/c2c(C(F)(F)F)nn(C)c2SCc2ccccc2Cl)cc1 | > 80 µM (inactive)
26 | CC1=CC(C)[C@H](/C=N/n2c(=O)[nH]c3c([nH]c4ccc(Br)cc43)c2=O)C(C)C1 (stereo not given in full) | > 80 µM (inactive)
27 | CCOc1ccccc1NC(=O)Cn1c(=O)n(-c2ccccc2)c(=O)c2oc3ccccc3c21 | > 80 µM (inactive)
28 | CCOC(=O)/C=c1\s/c(=C\c2ccc3cc(OC)ccc3c2)c(=O)n1CC(=O)NCC1CCCO1 (stereo not given) | 54.1 µM (inactive)
29 | COc1ccc(-c2ccc(C#N)c(SCC(=O)Nc3sc4c(c3C#N)CCC4)n2)cc1OC | > 80 µM (inactive)
30 | O=C(Nc1ccc(O)c(-c2nc3ccccc3s2)c1)c1cc(=O)c2ccccc2o1 | > 80 µM (inactive)
31 | CC(C)c1ccc(C2C3=C(COC3=O)Nc3cc4c(cc32)OCO4)cc1 (stereo not given) | 48.9 µM (inactive)
32 | NS(=O)(=O)c1ccc(N=Cc2c(O)n(C3CCCCC3)c(=O)n(C3CCCCC3)c2=O)cc1 | > 80 µM (inactive)
33 | Cn1c2ccccc2c2cc(/C=N/NC(=O)c3cc(O)ccc3O)ccc21 | 38.1 µM (inactive)
34 | Cc1ccc(-n2nc3c(N4CCC(C(=O)NCCc5ccccc5C)CC4)nnc(C)c3c2C)cc1 | > 80 µM (inactive)
35 | Cc1cnc(NC(=O)c2cc(S(=O)(=O)N(C)C)ccc2N2CCCC2)s1 | 6.6 µM
